Reference: PMC11653702, “Targeting the SPC25/RIOK1/MYH9 Axis to Overcome Tumor Stemness and Platinum Resistance in Epithelial Ovarian Cancer” (Advanced Science, 2024)
Peptide text beside a SMILES is read from it.

Experiments:
[1] = Survival of non-tumor-bearing mice on CBP1; format: in vivo, BALB/c-Nude mice; set-up: key to Survival status: 0: Alive; 1: Dead; conditions: for Survival status / Survival time (Days after CDDP treatment): CBP1 10mg/kg; for Survival status: day 42; for Survival time (Days after CDDP treatment): alive at this day
SPC25 = biological target: T1, SPC25 (Homo sapiens, UniProt Q9HBM1); test: Surface plasmon resonance, CBP1 binding to SPC25; conditions: SPR, BIAcore T200, CBP1 binding to SPC25; read-out: dissociation constant Kd
T1 sequence (Q9HBM1 1-224): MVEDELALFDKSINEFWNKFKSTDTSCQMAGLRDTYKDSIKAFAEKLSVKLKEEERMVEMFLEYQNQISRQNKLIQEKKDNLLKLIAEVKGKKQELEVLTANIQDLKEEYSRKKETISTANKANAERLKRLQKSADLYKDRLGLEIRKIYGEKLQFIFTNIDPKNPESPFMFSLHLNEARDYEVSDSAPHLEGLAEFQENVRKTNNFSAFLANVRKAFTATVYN
Method: Analysis of Surface Plasmon Resonance: Analysis of Surface Plasmon Resonance Binding kinetics between SPC25 and the indicated peptide-CBP1 were measured by Surface Plasmon Resonance (SPR) using a BIAcore T200 instrument (GE Healthcare, CA, USA). The dissociation constant (Kd) was calculated according to the BIA-evaluation software.

[2] = tested on: EOC organoids (HGS-202, HGS-203, HGS-107); test: Cell Counting Kit-8 assay in EOC patient-derived organoids; format: cell-based; conditions: EOC organoids HGS-202, HGS-203, HGS-107, compared with controls
[3] = Serum urea, creatinine, alanine aminotransferase, aspartate aminotransferase (hepatorenal function); conditions: for ALT / AST / CRE (creatinine) / UREA: mice under CBP1 treatment, after 6 weeks
Excerpt: Subsequently, we established a BALB/c‐Nude mouse model of EOC by intraperitoneally injecting OVCAR8 cells stably expressing a luciferase gene, as described previously. On reaching a bioluminescence signal of 2 × 10^7 p/s/cm^2/sr, mice were divided into 4 treatment groups: Vehicle, CBP1, CDDP, and CDDP/CBP1 (n = 7 per group; Figure 5I).
H) Serum urea, creatinine, alanine aminotransferase, and aspartate aminotransferase levels in normal and CBP1-treated nude mice assessed to evaluate hepatorenal function. […] Error bars represent the means ± SD of independent experiments; ns denotes not significant. In (A) and (H), two-sided Student’s t test was used.

[4] = 10 mg/kg, i.p., once every 2 days, 6 weeks, BALB/c-Nude mice without tumors

SMILES: CC[C@H](C)[C@H](NC(=O)[C@H](Cc1ccc(O)cc1)NC(=O)[C@H](C)NC(=O)CNC(=O)CNC(=O)[C@H](Cc1c[nH]c2ccccc12)NC(=O)[C@@H]1CCCN1C(=O)[C@H](CO)NC(=O)[C@@H](NC(=O)[C@H](Cc1ccc(O)cc1)NC(=O)[C@H](CC(C)C)NC(=O)[C@@H](N)Cc1c[nH]cn1)C(C)C)C(=O)N1CCC[C@H]1C(=O)N[C@@H](CCCNC(=N)N)C(=O)N[C@H](C(=O)N[C@@H](CC(C)C)C(=O)N[C@@H](CC(N)=O)C(=O)N[C@@H](CCC(=O)O)C(=O)N[C@H](C(=O)N[C@@H](CCCCN)C(=O)N[C@@H](CC(N)=O)C(=O)N[C@@H](Cc1ccc(O)cc1)C(=O)N[C@@H](CCC(=O)O)C(=O)N[C@@H](CCCNC(=N)N)C(=O)O)C(C)C)[C@@H](C)O [CBP1] (H-HLYVSPWGGAYIPRTLNEVKNYER-OH)
- effect on survival of normal mice [1, 4]: did not cause considerable hepatorenal toxicity or affect survival in the mice
- Survival status ([1]; animal 1): 0
- Survival status ([1]; animal 2): 0
- Survival status ([1]; animal 3): 0
- Survival status ([1]; animal 4): 0
- Survival status ([1]; animal 5): 0
- Survival status ([1]; animal 6): 0
- Survival status ([1]; animal 7): 0
- Survival time (Days after CDDP treatment) ([1]; animal 1): ≥ 42 days
- Survival time (Days after CDDP treatment) ([1]; animal 2): ≥ 42 days
- Survival time (Days after CDDP treatment) ([1]; animal 3): ≥ 42 days
- Survival time (Days after CDDP treatment) ([1]; animal 4): ≥ 42 days
- Survival time (Days after CDDP treatment) ([1]; animal 5): ≥ 42 days
- Survival time (Days after CDDP treatment) ([1]; animal 6): ≥ 42 days
- Survival time (Days after CDDP treatment) ([1]; animal 7): ≥ 42 days
- Kd (SPC25): 13.3 ± 2.88 µM
- CDDP cytotoxicity in presence of CBP1 [2]: markedly enhanced CDDP cytotoxicity
- hepatorenal toxicity [3, 4]: did not cause considerable hepatorenal toxicity
- ALT ([3]; animal #1): 61.601 U/L
- AST ([3]; animal #1): 95.798 U/L
- CRE (creatinine) ([3]; animal #1): 0.334 mg/dL
- UREA ([3]; animal #1): 19.36 mg/dL
- ALT ([3]; animal #2): 48.846 U/L
- AST ([3]; animal #2): 169.051 U/L
- CRE (creatinine) ([3]; animal #2): 0.381 mg/dL
- UREA ([3]; animal #2): 24.41 mg/dL
- ALT ([3]; animal #3): 37.083 U/L
- AST ([3]; animal #3): 149.075 U/L
- CRE (creatinine) ([3]; animal #3): 0.362 mg/dL
- UREA ([3]; animal #3): 17.46 mg/dL
- ALT ([3]; animal #4): 56.136 U/L
- AST ([3]; animal #4): 97.689 U/L
- CRE (creatinine) ([3]; animal #4): 0.247 mg/dL
- UREA ([3]; animal #4): 15.11 mg/dL
- ALT ([3]; animal #5): 58.209 U/L
- AST ([3]; animal #5): 124.231 U/L
- CRE (creatinine) ([3]; animal #5): 0.314 mg/dL
- UREA ([3]; animal #5): 16.87 mg/dL
- ALT ([3]; animal #6): 57.394 U/L
- AST ([3]; animal #6): 120.889 U/L
- CRE (creatinine) ([3]; animal #6): 0.253 mg/dL
- UREA ([3]; animal #6): 21.13 mg/dL
- ALT ([3]; animal #7): 54.623 U/L
- AST ([3]; animal #7): 133.397 U/L
- CRE (creatinine) ([3]; animal #7): 0.252 mg/dL
- UREA ([3]; animal #7): 15.13 mg/dL
